In patent US9340577B2, “HLA binding motifs and peptides and their uses” (priority 1992, dated 2016) one finds IC50 data, which are given here for 15 compounds.

Where two headings read alike, the source gives them in different places. No end group written: not given here.

Common to all, as to assay: biochemical
One assay has as its target DRB1*1201 (Homo sapiens, UniProt P01903+P01911, A100R/A169T/D57E/D86V/F55L/H45Y/K41T/L162R/M171V/P40S/Q125H/Q178H/Q39Y/Q99D/R42G/S66L/T262R/V114A/V67L/W38E/Y59H/Y61H/Y89S). The format is binding.
A further assay has as its target DR1 (DRB1*0101) (Homo sapiens, UniProt P01903+P01911, A100R/D57E/F55L/F60I/F76Y/I96L/L162R/M171V/P40L/Q125E/R42F/V115G/Y59C). The format is binding.
Another assay concerns the target DR4w4 (DRB1*0401) (Homo sapiens, UniProt P01903+P01911, A100K/A169T/F76Y/I96L/K127E/L162R/M171V/N62H/P40V/Q125Y/R42H/S133A/S149N/S66Y/V115G/V209L/W38E). The class given is binding.
Another assay addresses DR7 (DRB1*0701) (Homo sapiens, UniProt P01903+P01911, A100R/A102G/A103Q/D57E/D86V/E43K/F76Y/K127E/L162R/M171V/P40G/Q125H/Q99D/R33Q/R42Y/R54Q/S133A/S66F/T210M/V115G/Y107V/Y59L/Y89S). The format is binding.
Another assay deals with DRB1*0405 (Homo sapiens, UniProt P01903+P01911, A100R/A169T/D86S/F76Y/I96L/K127E/L162R/M171V/N62H/P40V/Q125Y/R42H/S133A/S149N/S66Y/V115G/V209L/W38E). The class given is binding.
For a further assay, the target named is DRB1*0802 (Homo sapiens, UniProt P01903+P01911, A100R/A103L/A169T/F76Y/H45Y/I96F/K41T/L162R/M171V/P40S/Q125H/Q178H/Q39Y/Q99D/R218S/R42G/S66Y/V115G/W38E). The format is binding.
The target in another assay is DRB1*0901 (Homo sapiens, UniProt P01903+P01911, A100R/A103E/D57H/D86V/F55Y/F60I/F76Y/I96F/K127E/L162R/M171V/P40D/Q125H/Q99R/R33Q/R42F/S133A/S66N/T210M/V115G/W38K/Y107V/Y59G/Y89S). The class given is binding.
Another assay concerns the target DRB1*1302 (Homo sapiens, UniProt P01903+P01911, A100E/A169T/K41T/L162R/M171V/P40S/Q125H/Q178H/Q39Y/Q99D/R42S/S66N/T262R/V115G/W38E/Y61H). The class given is binding.
The target of a further assay is DRB1*1501 (Homo sapiens, UniProt P01903+P01911). The format is binding.
The next assay addresses DRB4*0101 (Homo sapiens, UniProt P01903+P13762, G164S). The class given is binding.
A further assay deals with DRB1*1101 (Homo sapiens, UniProt P01903+P01911, A100R/A169T/A87E/I96F/K41T/L162R/M171V/P40S/Q125H/Q178H/Q39Y/Q99D/R42S/S66Y/T262R/V115G/W38E).
Chain of DRB1*1101 (P01903 26-254 limits assumed, other chains not shown): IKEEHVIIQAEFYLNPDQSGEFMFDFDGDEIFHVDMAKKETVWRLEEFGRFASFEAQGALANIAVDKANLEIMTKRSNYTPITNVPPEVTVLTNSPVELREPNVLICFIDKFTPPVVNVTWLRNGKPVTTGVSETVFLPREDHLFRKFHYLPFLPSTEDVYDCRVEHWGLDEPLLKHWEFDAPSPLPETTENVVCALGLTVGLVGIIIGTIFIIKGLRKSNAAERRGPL
The next assay has as its target DRB5*0101 (Homo sapiens, UniProt P01903+Q30154).

For orientation: IC50 means the midpoint of a concentration-inhibition curve. Read a high IC50 as a need for much substance.

Chain of DRB1*1302 (P01903 26-254 limits assumed, other chains not shown): as above

On DRB1*1201, `CC[C@H](C)[C@H](N)C(=O)N[C@@H](CC(C)C)C(=O)N[C@@H](CC(C)C)C(=O)N[C@@H](Cc1c[nH]c2ccccc12)C(=O)N[C@@H](CCC(N)=O)C(=O)N1CCC[C@H]1C(=O)N[C@H](C(=O)N1CCC[C@H]1C(=O)N[C@H](C(=O)N[C@@H](Cc1c[nH]cn1)C(=O)N[C@H](C(=O)N[C@H](C(=O)N1CCC[C@H]1C(=O)N[C@@H](CC(C)C)C(=O)N[C@@H](CO)C(=O)O)C(C)C)[C@@H](C)O)C(C)C)[C@@H](C)CC` [68,0038] returned a half-maximal inhibitory concentration (IC50) of 7.29 µM.

In the case of HPQWVLTAAHCLKKN [Peptide 68.0003], the midpoint of inhibition against DRB1*1201, the IC50, lay at 11.5 µM.

As to `CSCC[C@H](NC(=O)[C@H](CC(C)C)NC(=O)[C@@H]1CCCN1C(=O)[C@@H](NC(=O)[C@@H](N)CS)[C@@H](C)O)C(=O)N[C@@H](Cc1ccc(O)cc1)C(=O)N[C@@H](CO)C(=O)N[C@@H](CC(C)C)C(=O)N[C@H](C(=O)N[C@@H](Cc1c[nH]cn1)C(=O)N[C@@H](CC(N)=O)C(=O)N[C@@H](CC(C)C)C(=O)N[C@H](C(=O)N[C@@H](CCCCN)C(=O)N[C@@H](CCC(=O)O)C(=O)O)[C@@H](C)O)C(C)C` [Peptide 68.0113], the IC50 on DRB1*1201 is 1.73 µM.

Take `CC[C@H](C)[C@H](NC(=O)[C@H](CCCCN)NC(=O)[C@H](C)NC(=O)[C@@H]1CCCN1C(=O)[C@H](CCC(=O)O)NC(=O)[C@H](CO)NC(=O)[C@H](CC(C)C)NC(=O)[C@H](CCCNC(=N)N)NC(=O)[C@H](CC(C)C)NC(=O)[C@H](CC(C)C)NC(=O)[C@H](CCSC)NC(=O)[C@H](CC(C)C)NC(=O)[C@H](CC(=O)O)NC(=O)[C@@H](N)Cc1c[nH]cn1)C(=O)N[C@H](C(=O)O)[C@@H](C)O` [Peptide 68.0011]: the IC50 at DRB1*1201 turned out to be 0.084 µM.

The compound `CSCC[C@H](NC(=O)[C@H](CC(C)C)NC(=O)[C@H](CCC(N)=O)NC(=O)[C@H](CC(=O)O)NC(=O)[C@H](CC(N)=O)NC(=O)[C@H](CCSC)NC(=O)[C@H](CCSC)NC(=O)[C@H](CCCNC(=N)N)NC(=O)[C@H](CC(C)C)NC(=O)[C@@H](N)C(C)C)C(=O)N[C@@H](Cc1ccccc1)C(=O)N[C@@H](CC(C)C)C(=O)N[C@@H](CCC(=O)O)C(=O)N[C@@H](CCCNC(=N)N)C(=O)N[C@@H](C)C(=O)O` [Peptide 68.0130] registered an IC50 on DRB1*1201 of 0.098 µM.

Turning to DIAYKYAQLADVNSN [Peptide 89.0108], the IC50 is 4.73 µM against DR1 (DRB1*0101); 0.088 µM against DR4w4 (DRB1*0401); 1.02 µM against DR7 (DRB1*0701); 2.2 µM at DRB1*0405; over 20 µM at DRB1*0802; 10.6 µM on DRB1*0901. The IC50 against DRB1*1302 was over 20 µM; against DRB1*1501 it was over 20 µM; at DRB4*0101, 0.295 µM; at DRB1*1101 (Binding affinity DRB1 *1101), 12.6 µM; on DRB5*0101 (Binding affinity DRB5 *0101), 0.15 µM.

In the case of HCTLYTAVSSTWHWT [Peptide 89.0157], the IC50 is 2.89 µM against DR1 (DRB1*0101); 19 µM against DR4w4 (DRB1*0401); over 20 µM at DR7 (DRB1*0701); over 20 µM on DRB1*0405; over 20 µM at DRB1*0802; over 20 µM on DRB1*0901. For the same compound, the IC50 on DRB1*1302 was 0.867 µM; at DRB1*1501, over 20 µM; against DRB4*0101, over 20 µM; on DRB1*1101 (Binding affinity DRB1 *1101), over 20 µM; on DRB5*0101 (Binding affinity DRB5 *0101), over 20 µM.

In the case of LKTVKIPNTVQVIQG [Peptide 90.0017], the IC50 was 8.18 µM at DR1 (DRB1*0101); over 20 µM at DR4w4 (DRB1*0401); 0.777 µM on DR7 (DRB1*0701); 19.2 µM on DRB1*0405; over 20 µM on DRB1*0802; over 20 µM at DRB1*0901. For the same compound, the IC50 against DRB1*1302 was 0.033 µM; on DRB1*1501, over 20 µM; at DRB4*0101 it was over 20 µM; at DRB1*1101 (Binding affinity DRB1 *1101), over 20 µM; on DRB5*0101 (Binding affinity DRB5 *0101), over 20 µM.

As for NSIFDFGEMVQWAYD [Peptide 89.0106], the IC50 against DR1 (DRB1*0101) was 4.85 µM; against DR4w4 (DRB1*0401), 5.25 µM; against DR7 (DRB1*0701) it was 5.98 µM; against DRB1*0405, over 20 µM; at DRB1*0802, over 20 µM; against DRB1*0901 it was over 20 µM. The concentration for half-maximal inhibition (IC50) on DRB1*1302 was 0.532 µM; against DRB1*1501, 9.98 µM; on DRB4*0101 it was 3.95 µM; at DRB1*1101 (Binding affinity DRB1 *1101), over 20 µM; at DRB5*0101 (Binding affinity DRB5 *0101), over 20 µM.

With DSQIAFQYAQLADVD [Peptide 89.0130], the IC50 was over 20 µM at DR1 (DRB1*0101); 3 µM on DR4w4 (DRB1*0401); over 20 µM against DR7 (DRB1*0701); 9.99 µM against DRB1*0405; over 20 µM on DRB1*0802; over 20 µM against DRB1*0901. Besides, the IC50 at DRB1*1302 is over 20 µM; against DRB1*1501 it was over 20 µM; against DRB4*0101 it was 0.014 µM; against DRB1*1101, over 20 µM; at DRB5*0101, 17.1 µM.

As for LVQIKCPPLLITTNI [Peptide 89.0138], the IC50 at DR1 (DRB1*0101), at DR4w4 (DRB1*0401), at DR7 (DRB1*0701), against DRB1*0405, against DRB1*0802 and against DRB1*0901 was over 20 µM each time. The IC50 on DRB1*1302 is over 20 µM; against DRB1*1501 it was over 20 µM; against DRB4*0101, 0.018 µM; at DRB1*1101, over 20 µM; against DRB5*0101, over 20 µM.

Turning to `CC[C@H](C)[C@H](NC(=O)[C@H](C)NC(=O)[C@H](CCCCN)NC(=O)[C@H](Cc1c[nH]cn1)NC(=O)[C@H](C)NC(=O)[C@H](CCCCN)NC(=O)[C@H](CO)NC(=O)[C@H](CCCCN)NC(=O)[C@H](CO)NC(=O)[C@@H](NC(=O)[C@H](CC(N)=O)NC(=O)[C@H](Cc1ccc(O)cc1)NC(=O)[C@H](C)N)[C@@H](C)CC)C(=O)N[C@@H](CCC(=O)O)C(=O)N[C@@H](CC(C)C)C(=O)O` [Peptide 89.0159], the IC50 was 0.651 µM against DR1 (DRB1*0101); over 20 µM against DR4w4 (DRB1*0401); over 20 µM against DR7 (DRB1*0701); over 20 µM against DRB1*0405; over 20 µM against DRB1*0802; over 20 µM against DRB1*0901. Further, the IC50 on DRB1*1302, against DRB1*1501, against DRB4*0101, on DRB1*1101 (Binding affinity DRB1 *1101) and on DRB5*0101 (Binding affinity DRB5 *0101) was over 20 µM throughout.

Take EVHVGGQVIVCPASV [Peptide 90.0015]: the IC50 on DR1 (DRB1*0101) was 4.09 µM; at DR4w4 (DRB1*0401) it was 2.1 µM; against DR7 (DRB1*0701), 0.187 µM; on DRB1*0405, 6.78 µM; against DRB1*0802 it was over 20 µM; against DRB1*0901 it was 2.6 µM. The IC50 at DRB1*1302 is 0.152 µM; on DRB1*1501 it was over 20 µM; against DRB4*0101, 0.389 µM; on DRB1*1101 (Binding affinity DRB1 *1101), over 20 µM; at DRB5*0101 (Binding affinity DRB5 *0101), over 20 µM.

For QQQMFLGTVKIPPTV [Peptide 89.0187], the IC50 is 0.743 µM on DR1 (DRB1*0101); 0.07 µM against DR4w4 (DRB1*0401); over 20 µM against DR7 (DRB1*0701); 6.33 µM against DRB1*0405; 7.29 µM against DRB1*0802; over 20 µM at DRB1*0901. For the same compound, the IC50 at DRB1*1302 was 3.34 µM; on DRB1*1501, 1 µM; on DRB4*0101, 1.59 µM; at DRB1*1101 (Binding affinity DRB1 *1101), 5.88 µM; on DRB5*0101 (Binding affinity DRB5 *0101), over 20 µM.

With DRGIIILLLIRFRCS [Peptide 89.0062], the IC50 on DR1 (DRB1*0101) is over 20 µM; on DR4w4 (DRB1*0401), over 20 µM; on DR7 (DRB1*0701), over 20 µM; against DRB1*0405, 7.18 µM; against DRB1*0802, 0.085 µM; on DRB1*0901, over 20 µM. Further, the IC50 was over 20 µM against DRB1*1302; 14.4 µM on DRB1*1501; 7.56 µM at DRB4*0101; 8.28 µM on DRB1*1101 (Binding affinity DRB1 *1101); over 20 µM at DRB5*0101 (Binding affinity DRB5 *0101).
